The text below walks through data of patent publication US9533965B2, “2-arylbenzofuran-7-formamide compounds, preparation method and use thereof” (SHANGHAI INSTITUTE OF MATERIA MEDICA, CHINESE ACADEMY OF …, priority 2012, dated 2017).

Structures are written as SMILES. Where “and” joins values, the source holds several entries; their conditions need not be identical. Identical values can stand only once. Like-named read-outs stand apart in the source and are kept apart here.

One series addresses T1, TNKS1 (Homo sapiens, UniProt O95271).
T1 sequence (O95271 1-1327): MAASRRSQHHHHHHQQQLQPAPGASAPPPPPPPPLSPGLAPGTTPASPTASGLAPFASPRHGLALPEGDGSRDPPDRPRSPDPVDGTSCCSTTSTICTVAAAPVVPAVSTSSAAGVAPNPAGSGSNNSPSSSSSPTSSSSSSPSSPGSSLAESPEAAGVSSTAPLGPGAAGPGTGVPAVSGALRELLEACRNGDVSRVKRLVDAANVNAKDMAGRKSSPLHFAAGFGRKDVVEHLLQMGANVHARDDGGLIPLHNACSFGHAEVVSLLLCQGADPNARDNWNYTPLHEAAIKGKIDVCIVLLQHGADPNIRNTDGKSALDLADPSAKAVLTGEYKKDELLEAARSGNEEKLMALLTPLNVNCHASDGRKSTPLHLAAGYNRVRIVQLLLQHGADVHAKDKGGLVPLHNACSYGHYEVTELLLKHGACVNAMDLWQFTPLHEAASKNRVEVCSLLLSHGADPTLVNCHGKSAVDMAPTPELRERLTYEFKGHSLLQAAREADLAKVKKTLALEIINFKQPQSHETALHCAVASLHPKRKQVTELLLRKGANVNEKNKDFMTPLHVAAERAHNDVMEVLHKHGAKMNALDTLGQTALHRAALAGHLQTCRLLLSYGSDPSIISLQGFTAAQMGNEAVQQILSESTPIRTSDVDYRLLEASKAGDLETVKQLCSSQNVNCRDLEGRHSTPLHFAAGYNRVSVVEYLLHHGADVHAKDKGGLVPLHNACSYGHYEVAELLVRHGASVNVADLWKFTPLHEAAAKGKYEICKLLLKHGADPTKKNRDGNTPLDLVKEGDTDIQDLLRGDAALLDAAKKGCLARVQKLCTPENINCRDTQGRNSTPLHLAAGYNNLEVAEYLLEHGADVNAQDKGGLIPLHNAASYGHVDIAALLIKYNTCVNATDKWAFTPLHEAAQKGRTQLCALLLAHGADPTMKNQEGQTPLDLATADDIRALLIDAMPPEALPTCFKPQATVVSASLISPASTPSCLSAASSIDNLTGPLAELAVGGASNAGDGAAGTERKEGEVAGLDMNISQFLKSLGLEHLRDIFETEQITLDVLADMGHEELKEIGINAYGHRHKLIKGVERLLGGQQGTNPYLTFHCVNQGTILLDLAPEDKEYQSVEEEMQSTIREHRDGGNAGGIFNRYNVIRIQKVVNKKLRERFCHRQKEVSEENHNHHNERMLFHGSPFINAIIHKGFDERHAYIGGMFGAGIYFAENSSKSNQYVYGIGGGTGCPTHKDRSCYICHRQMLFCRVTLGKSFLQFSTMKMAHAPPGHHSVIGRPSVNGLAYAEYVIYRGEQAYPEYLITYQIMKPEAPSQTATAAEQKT
Put plainly: Enzymatic inhibition on the PARP family members (ELISA), TNKS1. The series is classed as biochemical. The note with it: PARP family panel, 30° C. A general note: In an ELISA, binding on a coated surface is turned into a signal by an enzyme label.

A short description of series [1]: Preliminary pharmacokinetic experiment in rats by gavage. The series is classed as in vivo, SD rats. The conditions noted are these: 10 mg/kg by gavage. As for the experimental part: Healthy SD rats (supplied by Shanghai Sippr-BK Lab. Animal Co. Ltd, the Production License Number for the experimental animals: SCXK (hu), 200-220 g of weight, male) were divided into groups randomly and administrated by gavage, respectively. The compound was dissolved in normal saline.
The rats fasted for 12 h and could drink water ad libitum before experiment. 2 h after dosing, the rats were provided with food all together.
The time point for collecting blood samples and the sample processing are listed as follows.
Intragastric administration: 0.25, 0.5, 1.0, 2.0, 3.0, 5.0, 7.0, 9.0 and 24 h after administration: 0.3 mL venous blood was taken from retrobulbar venous plexus of the rat and loaded into heparinization tubes. After being centrifuged at 11000 rpm for 5 min, the plasma was separated and frozen at −20° C. in a refrigerator.

For a further series, the target named is PARP1 (Homo sapiens, UniProt P09874). Put plainly: Enzymatic inhibition on the PARP family members (ELISA), PARP1. The series is classed as biochemical.
PARP1, sequence (P09874 whole entry): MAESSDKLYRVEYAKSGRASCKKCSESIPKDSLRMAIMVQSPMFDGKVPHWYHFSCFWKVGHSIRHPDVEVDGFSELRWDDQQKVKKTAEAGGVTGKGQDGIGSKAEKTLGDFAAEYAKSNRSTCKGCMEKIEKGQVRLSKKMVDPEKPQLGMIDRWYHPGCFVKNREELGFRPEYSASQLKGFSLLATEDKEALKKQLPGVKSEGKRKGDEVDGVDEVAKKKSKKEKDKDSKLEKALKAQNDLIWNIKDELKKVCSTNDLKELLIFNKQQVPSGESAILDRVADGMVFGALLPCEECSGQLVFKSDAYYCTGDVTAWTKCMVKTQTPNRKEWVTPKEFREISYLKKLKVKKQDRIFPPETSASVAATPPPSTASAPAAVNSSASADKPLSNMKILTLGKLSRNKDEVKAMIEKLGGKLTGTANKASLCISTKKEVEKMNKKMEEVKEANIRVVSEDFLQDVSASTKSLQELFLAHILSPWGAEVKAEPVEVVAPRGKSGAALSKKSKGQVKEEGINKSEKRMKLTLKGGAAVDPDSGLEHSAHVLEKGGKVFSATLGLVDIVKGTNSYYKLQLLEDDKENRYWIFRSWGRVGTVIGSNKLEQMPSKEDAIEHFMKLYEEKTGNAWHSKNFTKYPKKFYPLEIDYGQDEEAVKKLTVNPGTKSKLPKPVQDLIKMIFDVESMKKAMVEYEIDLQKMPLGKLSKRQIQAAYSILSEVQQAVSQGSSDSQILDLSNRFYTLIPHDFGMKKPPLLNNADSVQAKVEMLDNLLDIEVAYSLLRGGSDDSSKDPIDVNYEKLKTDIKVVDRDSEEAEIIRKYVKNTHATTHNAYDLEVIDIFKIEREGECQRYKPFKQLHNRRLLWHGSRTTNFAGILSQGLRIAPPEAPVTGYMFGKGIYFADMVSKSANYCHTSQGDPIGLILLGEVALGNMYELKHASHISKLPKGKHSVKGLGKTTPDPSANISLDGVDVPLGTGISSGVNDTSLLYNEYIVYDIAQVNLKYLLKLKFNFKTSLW

For orientation: IC50 means the concentration at which inhibition is half-maximal. By MRT is commonly meant the average time that molecules of a dose stay in the body. The term bioavailability denotes the share of a dose that reaches the circulation, judged against a reference dose that is usually intravenous. A word on the AUC(0-inf): it is the area under the concentration-time curve extrapolated to infinity.

Take `CNCc1ccc(-c2cc3cc(F)cc(C(N)=O)c3o2)cc1` [compound 5b, 5-fluoro-2-{4-[(methylamino)methyl]phenyl}benzofuran-7-carboxamide]: the IC50 was found to be 1600 nM against TNKS1 and 3.2 nM against PARP1 (PARP family panel). In series [1], the “eliminate rate in vivo” value is recorded as “moderate”. Besides, the AUC0-t in series [1] (10 mg/kg) was 394 ng·h/mL and 587 ng·h/mL and 352 ng·h/mL and 474 ng·h/mL; in series [1] (male, Sprague-Dawley (SD), rat, plasma, po, 10 mg/kg, read-out: AUC0-t) it was 452 ± 103 ng·h/mL. The “AUC0-∞” value in series [1] (10 mg/kg) is 595 ng·h/mL and 407 ng·h/mL and 478 ng·h/mL; in series [1] (10 mg/kg, mean), 471 ng·h/mL. Besides, the MRT was 3.82 h and 3.34 h and 5.57 h and 3.04 h in series [1] (10 mg/kg); 3.94 ± 1.13 h in series [1] (male, Sprague-Dawley (SD), rat, plasma, po, 10 mg/kg, read-out: MRT). Also, the bioavailability in series [1] (male, Sprague-Dawley (SD), rat, plasma, po, read-out: F (absolute bioavailability)) was 58.9%. In series [1] (male, Sprague-Dawley (SD), rat, plasma, po, 10 mg/kg), this compound yielded an AUC(0-inf) of 404 ng·h/mL. Moreover, the “inhibitory activity on PARP1/2 relative to other isoenzymes in the family” value at PARP1 (PARP1/2 versus PARP3, TNKS1, TNKS2, PARP6) is “at least 400 times”.
